Results as given in patent publication US20190216751A1, “Compositions and Methods for the Treatment and Prevention of Cancer” (California State University Northridge, priority 2017, published 2019).

What was measured:
BT549 cells = experiment: Cell proliferation assay (CellTiter 96 AQueous One, MTS); assay type: cell-based, human; details: TubA 1 μM pretreatment, GC7 0.1 nM to 1 mM
Description: (§1) The next research questions revolved around asking how TGFβ is regulating eIF5A and what other proteins might be involved to completely block TGFβ-induced EMT. This led to histone deacetylase enzyme 6 (HDAC6). HDAC6 has been previously reported to be responsible for the deacetylation of eIF5A in the nucleus in order to make it readily available for hypusination and later transport out in the cytoplasm for functioning as a translation factor. To determine if it were possible to further increase the efficacy or potency of GC7, the inventors co-treated with Tubastatin A (an HDAC6 inhibitor) in 4T1 and 67NR cells as well as MDA-MB-468 cells which initially were not very sensitive to GC7. Triple negative human breast cancer cell line, BT547, was also used to see if another cell line representative of this breast cancer subtype was sensitive towards DHPS and HDAC6 inhibition. (FIGS. 5A and 5B). […] MDA-MB-468 and BT549 cells remained to be insensitive to TubA with or without GC7 pretreatment (FIG. 5A). […]
(§2) The CellTiter 96® AQueous One Solution (Promega) was used to perform cell proliferation experiments. […] Absorbance readings were measured at 490 nm wavelength at 1.5, 2 and 3 hours (absorbance is directly proportional to the number of living cells).

MDA-MB-468 cells = experiment: as above; assay type: cell-based, human; details: TubA 1 μM pretreatment, GC7 0.1 nM to 1 mM
Description: as §1, §2

MCF10CA1h cells = experiment: Chicken CAM xenograft, tumor weight and metastasis (human Alu qPCR); assay type: in vivo
Experimental: FIGS. 11A and 11B. […] Human triple negative MCF10CA1h breast cancer cells were pre-treated with TGFβ and fibronectin for 7 days to induce PEAK1-dependent epithelial-mesenchymal transition and tumorigenic potential. 1e6 cells were xenografted onto the chorioallantoic membrane of 10 day old chicken embryos in 20 uL of growth factor reduced Matrigel, and subsequently treated with a vehicle control, GC7, TubastatinA (TubA) or both GC7/TubA at either 1 uM (panel A) or 10 uM (panel B). Tumors were allowed to develop over the following 7 days and then harvested and weighed along with the indicated liver, lung and brain tissues. gDNA was isolated from these additional tissues to quantify human Alu repeat sequence composition normalized to host chicken GAPDH as a measure of relative cell metastasis to the indicated tissues.
Based on the partially impaired expression of Zeb1 in vitro, we wanted to assess whether this effect would result in altered metastatic dissemination using the in vivo chicken CAM system.

[1] = test system: FOXP3+ T regulatory cell populations; details: increasing concentrations of GC7, type 1 diabetic mice in vivo; cited from earlier work
[2] = 1 μM GC7, fibronectin and TGFβ pre-treated cells, 7 days

N=C(N)NCCCCCCCN.O=S(=O)(O)O [GC7, N1-Guanyl-1,7-diaminoheptane]
change of potency of GC7 by TubA pretreatment (cell viability) (BT549 cells): this effect was not seen in the three other cell lines
change of potency of GC7 by TubA pretreatment (cell viability) (MDA-MB-468 cells): this effect was not seen in the three other cell lines
metastatic dissemination to lung (MCF10CA1h cells; [2]): significantly reduced
primary tumor mass (MCF10CA1h cells; [2]): unaffected
metastasis (MCF10CA1h cells; low doses of GC7 (1 uM, panel A)): reduces metastasis
FOXP3+ T regulatory cell populations [1]: significant reduction in FOXP3+ T regulatory cell populations
